Columns and labels:
wild oat = test: Test B pre/postemergence wild oat; type: in vivo, Avena fatua; conditions: for Plant response rating, Wild oats: scale of 0 to 10 where 0 is no effect and 10 is complete control
Procedure, shortened: (§1)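 Response is a visual 0-to-10 score relative to untreated plants, where 0 means no effect and 10 means complete control, taken twelve to sixteen days after application. Treatments went onto soil at planting and onto foliage of 1- to 4-leaf plants, using a surfactant-containing non-phytotoxic solvent.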

rape = test: Test B pre/postemergence rape; type: in vivo, Brassica napus; conditions: for Plant response rating, Rape: scale of 0 to 10 where 0 is no effect and 10 is complete control
Procedure, shortened: as §1

pigweed = test: Test B pre/postemergence pigweed; type: in vivo, Amaranthus retroflexus; conditions: for Plant response rating, Redroot pigweed: scale of 0 to 10 where 0 is no effect and 10 is complete control
Procedure, shortened: as §1

corn = test: Test B pre/postemergence corn; type: in vivo, Zea mays
Procedure, shortened: as §1

sugar beet = test: Test B pre/postemergence sugar beet; type: in vivo, Beta vulgaris; conditions: for Plant response rating, Sugarbeets: scale of 0 to 10 where 0 is no effect and 10 is complete control
Procedure, shortened: as §1

bamyardgrass = test: Test B flood test barnyardgrass; type: in vivo, Echinochloa crus-galli
Procedure, shortened: (§2)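 Each value is a visual injury score relative to controls, with 10 meaning complete control and 0 no effect. Evaluation took place twelve to sixteen days after the 2-leaf-stage plants were treated and kept in the greenhouse.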

velvetleaf = test: Test B pre/postemergence velvetleaf; type: in vivo, Abutilon theophrasti; conditions: for Plant response rating, Velvetleaf: scale of 0 to 10 where 0 is no effect and 10 is complete control
Procedure, shortened: as §1

morningglory = test: Test B pre/postemergence morningglory; type: in vivo, Ipomoea hederacea; conditions: for Plant response rating, Morningglory: scale of 0 to 10 where 0 is no effect and 10 is complete control
Procedure, shortened: as §1

bedstraw = test: Test B pre/postemergence bedstraw; type: in vivo, Galium aparine; conditions: Postemergence
Procedure, shortened: as §1

soybean = test: Test B pre/postemergence soybean; type: in vivo, Glycine max; conditions: for Plant response rating, Soybean: scale of 0 to 10 where 0 is no effect and 10 is complete control
Procedure, shortened: as §1

blackgrass = test: Test B pre/postemergence blackgrass; type: in vivo, Alopecurus myosuroides
Procedure, shortened: as §1

purple nutsedge = test: Test B pre/postemergence purple nutsedge; type: in vivo, Cyperus rotundus; conditions: for Plant response rating, Nutsedge: scale of 0 to 10 where 0 is no effect and 10 is complete control
Procedure, shortened: as §1

rice = test: Test B flood test rice; type: in vivo, Oryza sativa
Procedure, shortened: as §2

smallflower flatsedge = test: Test B flood test smallflower flatsedge; type: in vivo, Cyperus difformis
Procedure, shortened: as §2

surinam grass = test: Test B pre/postemergence surinam grass; type: in vivo, Brachiaria decumbens
Procedure, shortened: as §1

cocklebur = test: Test B pre/postemergence cocklebur; type: in vivo, Xanthium strumarium
Procedure, shortened: as §1

[1] = Postemergence, Rate 250 g/ha, scale 0 to 10
[2] = Preemergence, Rate 250 g/ha, scale 0 to 10, 0 is no effect, 10 is complete control
[3] = Preemergence, Rate 500 g/ha, scale 0 to 10, 0 is no effect, 10 is complete control
[4] = Rate 62 g/ha, Postemergence, scale 0 to 10, 0 no effect, 10 complete control
[5] = Rate 125 g/ha, Postemergence, scale 0 to 10, 0 is no effect, 10 is complete control
[6] = Postemergence, Rate 500 g/ha, scale of 0 to 10 where 0 is no effect and 10 is complete control
[7] = Preemergence, Rate 62 g/ha, scale of 0 to 10 where 0 is no effect and 10 is complete control
[8] = Preemergence, Rate 125 g/ha, scale of 0 to 10 where 0 is no effect and 10 is complete control
[9] = Rate 62 g/ha, flood test species, Pre-emergence, visual evaluation after twelve to sixteen days
[10] = Rate 125 g/ha, under heading Pre-emergence, flood test species, visual evaluation after twelve to sixteen days
[11] = Rate 250 g/ha, Pre-emergence (flood test species), scale 0 to 10, 0 is no effect, 10 is complete control
[12] = Rate 500 g/ha, Pre-emergence, flood test species, scale 0 to 10 (0 no effect, 10 complete control)

CC(C)N(C(=O)n1oc(=O)n(C(C)C#N)c1=O)c1ccc(Cl)cc1 (centres unmarked) [Compound 451]
Wild oats plant response rating (wild oat; [1]): 0
Plant response rating, Wild oats (wild oat; Preemergence, Rate 62 g/ha): 0
Plant response rating, Wild oats (wild oat; Preemergence, Rate 125 g/ha): 0
Wild oats plant response rating (wild oat; [2]): 0
Wild oats plant response rating (wild oat; [3]): 0
Wild oats plant response rating (wild oat; [4]): 0
Wild oats plant response rating (wild oat; [5]): 0
Rape plant response rating (rape; [1]): 0
Plant response rating, Rape (rape; Preemergence, Rate 62 g/ha): 0
Plant response rating, Rape (rape; Preemergence, Rate 125 g/ha): 0
Rape plant response rating (rape; [2]): 0
Rape plant response rating (rape; [3]): 0
Rape plant response rating (rape; [4]): 0
Rape plant response rating (rape; [5]): 0
Redroot pigweed plant response rating (pigweed; [1]): 0
Plant response rating, Redroot pigweed (pigweed; Preemergence, Rate 62 g/ha): 0
Plant response rating, Redroot pigweed (pigweed; Preemergence, Rate 125 g/ha): 0
Redroot pigweed plant response rating (pigweed; [2]): 0
Redroot pigweed plant response rating (pigweed; [3]): 0
Redroot pigweed plant response rating (pigweed; [4]): 0
Redroot pigweed plant response rating (pigweed; [5]): 0
Corn plant response rating (corn; [1]): 0
Corn plant response rating (corn; [6]): 0
Plant response rating, Corn (corn; [7]): 0
Plant response rating, Corn (corn; [8]): 0
Corn plant response rating (corn; [2]): 0
Corn plant response rating (corn; [3]): 0
Corn plant response rating (corn; [4]): 0
Corn plant response rating (corn; [5]): 0
Sugarbeets plant response rating (sugar beet; [1]): 0
Plant response rating, Sugarbeets (sugar beet; Preemergence, Rate 62 g/ha): 0
Plant response rating, Sugarbeets (sugar beet; Preemergence, Rate 125 g/ha): 0
Sugarbeets plant response rating (sugar beet; [2]): 0
Sugarbeets plant response rating (sugar beet; [3]): 0
Sugarbeets plant response rating (sugar beet; [4]): 0
Sugarbeets plant response rating (sugar beet; [5]): 0
Plant response rating, Barnyardgrass (0 to 10 scale, 0 is no effect, 10 is complete control) (bamyardgrass; [9]): 0
Barnyardgrass plant response rating (0 to 10 scale, 0 is no effect, 10 is complete control) (bamyardgrass; [10]): 0
Barnyardgrass plant response rating (bamyardgrass; [11]): 0
Barnyardgrass plant response rating (bamyardgrass; [12]): 0
Velvetleaf plant response rating (velvetleaf; [1]): 0
Plant response rating, Velvetleaf (velvetleaf; Preemergence, Rate 62 g/ha): 0
Plant response rating, Velvetleaf (velvetleaf; Preemergence, Rate 125 g/ha): 0
Velvetleaf plant response rating (velvetleaf; [2]): 0
Velvetleaf plant response rating (velvetleaf; [3]): 0
Velvetleaf plant response rating (velvetleaf; [4]): 0
Velvetleaf plant response rating (velvetleaf; [5]): 0
Morningglory plant response rating (morningglory; [1]): 1
Plant response rating, Morningglory (morningglory; Preemergence, Rate 62 g/ha): 0
Plant response rating, Morningglory (morningglory; Preemergence, Rate 125 g/ha): 0
Morningglory plant response rating (morningglory; [2]): 0
Morningglory plant response rating (morningglory; [3]): 0
Morningglory plant response rating (morningglory; [4]): 1
Morningglory plant response rating (morningglory; [5]): 1
Bedstraw plant response rating (bedstraw; Rate 62 g/ha, scale 0 to 10, 0 no effect, 10 complete control): 0
Bedstraw plant response rating (bedstraw; Rate 125 g/ha, scale 0 to 10, 0 is no effect, 10 is complete control): 0
Soybean plant response rating (soybean; [1]): 1
Plant response rating, Soybean (soybean; Preemergence, Rate 62 g/ha): 0
Plant response rating, Soybean (soybean; Preemergence, Rate 125 g/ha): 0
Soybean plant response rating (soybean; [2]): 0
Soybean plant response rating (soybean; [3]): 0
Soybean plant response rating (soybean; [4]): 0
Soybean plant response rating (soybean; [5]): 1
Blackgrass plant response rating (blackgrass; [1]): 2
Blackgrass plant response rating (blackgrass; [6]): 6
Plant response rating, Blackgrass (blackgrass; [7]): 0
Plant response rating, Blackgrass (blackgrass; [8]): 0
Blackgrass plant response rating (blackgrass; [2]): 0
Blackgrass plant response rating (blackgrass; [3]): 0
Blackgrass plant response rating (blackgrass; [4]): 0
Blackgrass plant response rating (blackgrass; [5]): 0
Nutsedge plant response rating (purple nutsedge; [1]): 0
Plant response rating, Nutsedge (purple nutsedge; Preemergence, Rate 62 g/ha): 0
Plant response rating, Nutsedge (purple nutsedge; Preemergence, Rate 125 g/ha): 0
Nutsedge plant response rating (purple nutsedge; [3]): 0
Nutsedge plant response rating (purple nutsedge; [4]): 0
Nutsedge plant response rating (purple nutsedge; [5]): 0
Plant response rating, Rice (0 to 10 scale, 0 is no effect, 10 is complete control) (rice; [9]): 0
Rice plant response rating (0 to 10 scale, 0 is no effect, 10 is complete control) (rice; [10]): 0
Rice plant response rating (rice; [11]): 0
Rice plant response rating (rice; [12]): 0
Plant response rating, S. Flatsedge (0 to 10 scale, 0 is no effect, 10 is complete control) (smallflower flatsedge; [9]): 0
S. Flatsedge plant response rating (0 to 10 scale, 0 is no effect, 10 is complete control) (smallflower flatsedge; [10]): 0
S. Flatsedge plant response rating (smallflower flatsedge; [11]): 0
S. Flatsedge plant response rating (smallflower flatsedge; [12]): 0
B. signalgrass plant response rating (surinam grass; Postemergence, Rate 250 g/ha, scale 0 to 10, 0 no effect, 10 complete control): 0
B. signalgrass plant response rating (surinam grass; [6]): 2
Plant response rating, B. signalgrass (surinam grass; [7]): 0
Plant response rating, B. signalgrass (surinam grass; [8]): 0
B. signalgrass plant response rating (surinam grass; [2]): 0
B. signalgrass plant response rating (surinam grass; [3]): 0
B. signalgrass plant response rating (surinam grass; [4]): 0
B. signalgrass plant response rating (surinam grass; [5]): 0
Cocklebur plant response rating (cocklebur; [1]): 0
Cocklebur plant response rating (cocklebur; [6]): 0
Plant response rating, Cocklebur (cocklebur; [7]): 0
Plant response rating, Cocklebur (cocklebur; [8]): 0
Cocklebur plant response rating (cocklebur; [2]): 0
Cocklebur plant response rating (cocklebur; [3]): 0
Cocklebur plant response rating (cocklebur; [4]): 0
Cocklebur plant response rating (cocklebur; [5]): 0

— patent publication US6737383B1, “Herbicidal oxadiazolidines” (priority 1999, dated 2004)
